Reference: ChEMBL document CHEMBL1201862, “PubChem BioAssay data set” (2004)
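Compound exposure: 48 hours, 5 concentrations, 96-well plates. Here, GI50 denotes the concentration required for 50% inhibition of growth.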 Activity calls are given as the source filed them. Rule as the data show it: active = GI50 up to about 1.1 µM and inactive = higher.

Assays:
Test in all cases: NCI tumour cell line growth inhibition, 48 h
786-0 = test system: 786-0
A498 = test system: A498
A549 = test system: A549
ACHN = test system: ACHN
CAKI-1 = test system: CAKI-1
CCRF-CEM = test system: CCRF-CEM
COLO 205 = test system: COLO 205
DU-145 = test system: DU-145
EKVX = test system: EKVX
HCC 2998 = test system: HCC 2998
HCT-116 = test system: HCT-116
HCT-15 = test system: HCT-15
HL-60 = test system: HL-60
HOP-62 = test system: HOP-62
HOP-92 = test system: HOP-92
HT-29 = test system: HT-29
Hs-578T = test system: Hs-578T
IGROV-1 = test system: IGROV-1
K562 = test system: K562
LOX IMVI = test system: LOX IMVI
M14 = test system: M14
MDA-MB-231 = test system: MDA-MB-231
MDA-MB-435 = test system: MDA-MB-435
MOLT-4 = test system: MOLT-4
Malme-3M = test system: Malme-3M
NCI-H226 = test system: NCI-H226
NCI-H23 = test system: NCI-H23
NCI-H460 = test system: NCI-H460
NCI-H522 = test system: NCI-H522
NCI/ADR-RES = test system: NCI/ADR-RES
OVCAR-3 = test system: OVCAR-3
OVCAR-4 = test system: OVCAR-4
OVCAR-5 = test system: OVCAR-5
OVCAR-8 = test system: OVCAR-8
PC-3 = test system: PC-3
RPMI-8226 = test system: RPMI-8226
RXF 393 = test system: RXF 393
SF-268 = test system: SF-268
SF-295 = test system: SF-295
SF-539 = test system: SF-539
SK-MEL-28 = test system: SK-MEL-28
SK-MEL-2 = test system: SK-MEL-2
SK-MEL-5 = test system: SK-MEL-5
SK-OV-3 = test system: SK-OV-3
SN12C = test system: SN12C
SNB-19 = test system: SNB-19
SNB-75 = test system: SNB-75
SR = test system: SR
SW-620 = test system: SW-620
T47D = test system: T47D
U-251 = test system: U-251
UACC-257 = test system: UACC-257
UACC-62 = test system: UACC-62
UO-31 = test system: UO-31
KM12 = test system: KM12
MCF7 = test system: MCF7
MDA-N = test system: MDA-N
TK-10 = test system: TK-10

Measured: GI50

CC1(C)CC(=O)C2=C(C1)OC1=C(CC(C)(C)CC1=O)C2c1ccccc1Cl (centres undefined)
inactive: 786-0 > 100 µM | A498 > 100 µM | A549 > 100 µM | ACHN > 100 µM | CAKI-1 > 100 µM | CCRF-CEM > 100 µM | COLO 205 > 100 µM | DU-145 > 100 µM | EKVX > 100 µM | HCC 2998 > 100 µM | HCT-116 > 100 µM | HL-60 > 100 µM | HOP-62 59.2 µM | HOP-92 > 100 µM | HT-29 > 100 µM | Hs-578T > 100 µM | IGROV-1 > 100 µM | K562 > 100 µM | LOX IMVI > 100 µM | M14 > 100 µM | MDA-MB-231 89.7 µM | MDA-MB-435 > 100 µM | MOLT-4 > 100 µM | Malme-3M > 100 µM | NCI-H226 > 100 µM | NCI-H23 > 100 µM | NCI-H460 > 100 µM | NCI-H522 > 100 µM | NCI/ADR-RES > 100 µM | OVCAR-3 > 100 µM | OVCAR-4 > 100 µM | OVCAR-5 > 100 µM | OVCAR-8 > 100 µM | PC-3 > 100 µM | RPMI-8226 > 100 µM | RXF 393 > 100 µM | SF-268 > 100 µM | SF-295 > 100 µM | SF-539 70.5 µM | SK-MEL-28 > 100 µM | SK-MEL-2 > 100 µM | SK-MEL-5 43.5 µM | SK-OV-3 > 100 µM | SN12C > 100 µM | SNB-19 > 100 µM | SNB-75 > 100 µM | SR > 100 µM | SW-620 > 100 µM | T47D > 100 µM | U-251 > 100 µM | UACC-257 > 100 µM | UACC-62 > 100 µM | UO-31 1.94 µM
> 100 µM: HCT-15

CCOC(=O)c1csc(NC(=O)CN2CCN(C)CC2)n1
inactive: A498 > 100 µM | A549 > 100 µM | ACHN > 100 µM | CAKI-1 > 100 µM | CCRF-CEM > 100 µM | COLO 205 > 100 µM | DU-145 > 100 µM | EKVX > 100 µM | HCC 2998 > 100 µM | HL-60 > 100 µM | HOP-62 > 100 µM | HOP-92 > 100 µM | HT-29 > 100 µM | IGROV-1 > 100 µM | K562 > 100 µM | KM12 > 100 µM | LOX IMVI > 100 µM | M14 > 100 µM | MCF7 > 100 µM | MDA-MB-231 > 100 µM | MDA-MB-435 > 100 µM | MDA-N > 100 µM | MOLT-4 > 100 µM | Malme-3M > 100 µM | NCI-H226 > 100 µM | NCI-H23 > 100 µM | NCI-H460 > 100 µM | NCI/ADR-RES > 100 µM | OVCAR-3 > 100 µM | OVCAR-4 > 100 µM | OVCAR-5 > 100 µM | OVCAR-8 > 100 µM | PC-3 > 100 µM | RPMI-8226 > 100 µM | RXF 393 > 100 µM | SF-295 > 100 µM | SK-MEL-28 > 100 µM | SK-MEL-2 > 100 µM | SK-MEL-5 > 100 µM | SK-OV-3 > 100 µM | SNB-19 > 100 µM | SNB-75 > 100 µM | SR > 100 µM | SW-620 > 100 µM | T47D > 100 µM | TK-10 > 100 µM | U-251 > 100 µM | UACC-257 > 100 µM | UACC-62 > 100 µM | UO-31 > 100 µM
> 100 µM: HCT-15

CC(C)OP(=O)(OC(C)C)c1c(N)n[nH]c1Nc1ccccc1
inactive: A498 > 100 µM | A549 > 100 µM | ACHN > 100 µM | CAKI-1 > 100 µM | CCRF-CEM > 100 µM | COLO 205 > 100 µM | DU-145 > 100 µM | EKVX > 100 µM | HCC 2998 > 100 µM | HOP-62 > 100 µM | HOP-92 > 100 µM | HT-29 > 100 µM | Hs-578T 33 µM | IGROV-1 > 100 µM | K562 > 100 µM | KM12 > 100 µM | LOX IMVI > 100 µM | M14 > 100 µM | MCF7 > 100 µM | MDA-MB-231 > 100 µM | MDA-MB-435 > 100 µM | MDA-N > 100 µM | MOLT-4 > 100 µM | Malme-3M > 100 µM | NCI-H226 > 100 µM | NCI-H23 > 100 µM | NCI-H460 > 100 µM | NCI-H522 > 100 µM | NCI/ADR-RES > 100 µM | OVCAR-3 > 100 µM | OVCAR-4 > 100 µM | OVCAR-5 > 100 µM | OVCAR-8 > 100 µM | PC-3 > 100 µM | RPMI-8226 > 100 µM | RXF 393 > 100 µM | SF-268 > 100 µM | SF-295 > 100 µM | SF-539 > 100 µM | SK-MEL-28 > 100 µM | SK-MEL-2 > 100 µM | SK-MEL-5 > 100 µM | SK-OV-3 > 100 µM | SNB-19 > 100 µM | SNB-75 > 100 µM | SR > 100 µM | SW-620 > 100 µM | T47D > 100 µM | TK-10 > 100 µM | U-251 > 100 µM | UACC-257 > 100 µM | UACC-62 > 100 µM | UO-31 > 100 µM
> 100 µM: HCT-15
